Data as given in paper PMC4840272 (Neoplasia (New York, N.Y.), 2016).
Several values for one entry are separate records, joined by “and”; a condition that tells them apart may be missing. Identical values can stand only once.

Columns and labels:
[1] = cited from earlier work
H1650 cells = assay: cells; format: cell-based, human; conditions: Homo sapiens, NCI-H1650, 72 h
[2] = acute toxicity LD50 in ICR mice; conditions: male, mouse, in vivo
CL100 cells = assay: cells; format: cell-based, human; conditions: Homo sapiens, 72 h
MES-SA/dx5 = assay: cytotoxicity in multiple drug-resistant and cisplatin-resistant cells; format: cell-based
11 NSCLC cell lines = assay: cytotoxicity against batch of 11 NSCLC cell lines; format: cell-based; conditions: Homo sapiens, read-out: IC50 values against NSCLC cells (range)
[3] = whole-blood pharmacokinetics in SD rats; format: in vivo
PC9/gef B4 xenograft = PC9/gef B4 xenograft in nude mice; format: in vivo; conditions: i.v., BO-1978 40 mg/kg, gefitinib 10 mg/kg, daily for 5 consecutive days
H460 xenograft = H460 xenograft in nude mice; format: in vivo
CCRF-CEM = assay: cytotoxicity in multiple drug-resistant and cisplatin-resistant cells; format: cell-based; conditions: Homo sapiens
γH2AX, DNA-PK, and Rad51 = assay: Western blot of DNA damage response; format: cell-based, human; conditions: H460 cells, 1 to 4 μM, 24 hours
PC9 cells = assay: cells; format: cell-based, human; conditions: Homo sapiens, PC-9, 72 h
KB = assay: cytotoxicity in multiple drug-resistant and cisplatin-resistant cells; format: cell-based; conditions: Homo sapiens
caspases 3 and 7 = assay: Western blot of apoptotic executor proteins; format: cell-based, human; conditions: H460 cells
NTUB1/P = assay: cytotoxicity in multiple drug-resistant and cisplatin-resistant cells; format: cell-based
H1299 cells = assay: cells; format: cell-based, human; conditions: Homo sapiens, NCI-H1299, 72 h
PC9/gef B4 cells = assay: cells; format: cell-based, human
H1650-Luc cells = assay: orthotopic lung tumor model, IVIS; format: in vivo, nude mice; conditions: BO-1978 40 mg/kg, gefitinib 10 mg/kg, daily for 5 consecutive days
CL1-5 cells = assay: alamarBlue in vitro cytotoxicity assay; format: cell-based, human; conditions: Homo sapiens, CL1-5, 72 h
[4] = stability in culture medium; format: physicochemical
PC9 xenograft = PC9 xenograft in nude mice; format: in vivo; conditions: i.v., BO-1978 40 mg/kg, gefitinib 10 mg/kg, daily for 5 consecutive days
MES-SA = assay: cytotoxicity in multiple drug-resistant and cisplatin-resistant cells; format: cell-based; conditions: Homo sapiens
H460 cells [5] = assay: cell cycle analysis by flow cytometry; format: cell-based, human; conditions: 1 to 4 μM, 24 to 72 hours
pEGFP-N1 plasmid DNA = assay: alkaline gel shift assay of DNA cross-linking; format: biochemical; conditions: 0.125 to 2 μM, 2 hours, 37°C
[6] = complete blood count and blood chemistry test in ICR mice; format: in vivo; conditions: 40 mg/kg i.v.
A549 cells = assay: cells; format: cell-based, human; conditions: Homo sapiens, A549, 72 h
topo II = topo II activity assay with nuclear extracts of treated H460 cells; format: cell-based, human; conditions: H460 cells treated 72 hours, nuclear extract, plasmid relaxation
topo I = topo I (Homo sapiens, UniProt P11387); assay: topo I activity assay with nuclear extracts of treated H460 cells; format: cell-based; conditions: H460 cells treated 72 hours, nuclear extract, plasmid relaxation
H460 cells [7] = assay: cells; format: cell-based, human; conditions: Homo sapiens, NCI-H460, 72 h
[8] = histopathological examination of major organs in ICR mice; format: in vivo; conditions: 40 mg/kg i.v., days 2 and 14, histopathology and blood tests
CL97 cells = assay: cells; format: cell-based, human; conditions: Homo sapiens, CL97, 72 h
NTUB1 = assay: cytotoxicity in multiple drug-resistant and cisplatin-resistant cells; format: cell-based
H1975 xenograft = H1975 xenograft in nude mice; format: in vivo; conditions: i.v., BO-1978 40 mg/kg, gefitinib 10 mg/kg, daily for 5 consecutive days
CL141T cells = assay: cells; format: cell-based, human; conditions: Homo sapiens, 72 h
CCRF/VBL = assay: cytotoxicity in multiple drug-resistant and cisplatin-resistant cells; format: cell-based
H1975 cells = assay: cells; format: cell-based, human; conditions: Homo sapiens, NCI-H1975, 72 h
stability in rat plasma = format: in vitro ADME
H1650 xenograft = H1650 xenograft in nude mice; format: in vivo; conditions: i.v., BO-1978 40 mg/kg, gefitinib 10 mg/kg, daily for 5 consecutive days
KB/vin10 = assay: cytotoxicity in multiple drug-resistant and cisplatin-resistant cells; format: cell-based
H460 cells [9] = assay: modified comet assay of DNA ICLs; format: cell-based, human; conditions: 1, 5, and 10 μM, 2 hours
[10] = tissue distribution in SD rats; format: in vivo; conditions: 30 minutes after administration, 10 mg/kg, n = 6
[11] = male, SD, rat, whole blood, iv, 10 mg/kg

Sequence of topo I (P11387 whole entry): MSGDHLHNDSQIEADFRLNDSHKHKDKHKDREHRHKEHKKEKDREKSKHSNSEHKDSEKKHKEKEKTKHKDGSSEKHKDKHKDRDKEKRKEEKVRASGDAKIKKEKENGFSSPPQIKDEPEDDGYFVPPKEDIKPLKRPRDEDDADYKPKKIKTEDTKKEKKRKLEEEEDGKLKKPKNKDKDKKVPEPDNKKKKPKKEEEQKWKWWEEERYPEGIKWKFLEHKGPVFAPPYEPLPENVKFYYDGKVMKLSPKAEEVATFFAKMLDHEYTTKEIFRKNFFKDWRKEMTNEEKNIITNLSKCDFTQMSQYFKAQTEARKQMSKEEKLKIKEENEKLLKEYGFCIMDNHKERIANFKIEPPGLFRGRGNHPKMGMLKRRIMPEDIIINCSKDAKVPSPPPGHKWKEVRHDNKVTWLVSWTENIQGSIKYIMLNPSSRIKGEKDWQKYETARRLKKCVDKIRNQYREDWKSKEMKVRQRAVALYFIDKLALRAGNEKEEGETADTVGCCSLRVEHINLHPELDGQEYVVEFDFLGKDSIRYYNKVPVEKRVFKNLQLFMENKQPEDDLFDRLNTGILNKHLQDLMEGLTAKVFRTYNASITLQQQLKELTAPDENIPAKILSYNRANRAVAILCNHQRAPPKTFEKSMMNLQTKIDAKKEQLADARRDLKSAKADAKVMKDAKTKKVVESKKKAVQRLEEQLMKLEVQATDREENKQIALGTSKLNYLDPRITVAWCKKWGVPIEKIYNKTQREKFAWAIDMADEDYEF

For Cn1c(CCCC(=O)O)nc2cc(N(CCCl)CCCl)ccc21 [bendamustine], the “elimination t1/2” value [1] is given as “approximately 40 minutes”.
Work on CCc1c(CO)c(CO)c2n1Cc1c(c3ccccc3n1C)C2 [BO-1978, [3-ethyl-6-methyl-6,11-dihydro-5H-indolizino[6,7-b]indole-1,2-diyl]dimethanol] yielded an IC50 (H1650 cells) of 3.5 ± 0.1 µM, an LD50 [2] of 93.7 mg/kg and an IC50 (CL100 cells) of 1510 ± 300 nM. For the same compound, the IC50 (MES-SA/dx5; Homo sapiens, MES-SA/Dx5) was 470 ± 120 nM, the resistance factor (MES-SA/dx5; MES-SA/dx5 vs MES-SA) was 0.61 x and the IC50 (11 NSCLC cell lines) was 1060 to 3500 nM. The “systemic clearance as share of cardiac output of rats” value ([3]; cardiac output approximately 296 ml/min per kg) was “approximately 19%”, the systemic clearance ([3]; male SD rats, single i.v. 10 mg/kg) was 56.24 ± 14.90 ml/min per kg and the AUC(0-t) [3, 11] was 3140 ng·h/mL. For the same compound, the C0 [3, 11] was 8630 ng/mL and 27.8 µM, the MRT [3, 11] was 27.3 min and the half-life [3, 11] was 23.5 ± 7.09 min. For the same compound, the “suppression of xenograft tumor growth” value (PC9/gef B4 xenograft) was 73%, the body weight loss (H460 xenograft; H460 xenograft mice, BO-1978 40 mg/kg QDx5, cisplatin 6 mg/kg every 4 days x3) was “negligible” and the “H460 xenograft tumor size suppressed/reduced to” value (H460 xenograft; i.v., BO-1978 40 mg/kg QDx5, cisplatin 6 mg/kg every 4 days x3) was “approximately 65%”. The maximal tolerant dose (H460 xenograft; nude mice, i.v., given for 5 consecutive days (QDx5)) was 40 mg/kg, the IC50 (CCRF-CEM) was 460 ± 120 nM and the “expression of γH2AX, DNA-PK, and Rad51” value (γH2AX, DNA-PK, and Rad51) was “dose-dependently increased the expression levels”. The IC50 (PC9 cells) was 1410 ± 370 nM, the IC50 (KB) was 1960 ± 390 nM and the “cleavage of caspases 3 and 7” value (caspases 3 and 7) was “dose- and time-dependently induced cleavage of caspases 3 and 7”. For the same compound, the IC50 (NTUB1/P; NTUB1) was 1920 ± 390 nM, the resistance factor (NTUB1/P; NTUB1/P vs NTUB1) was 1.68 x and the IC50 (H1299 cells) was 3.02 ± 0.65 µM. For the same compound, the IC50 (PC9/gef B4 cells; Homo sapiens, 72 h) was 1580 ± 330 nM, the “resistance factor of PC9/gef B4 to PC9 cells” value (PC9/gef B4 cells; IC50 ratio, number in brackets) was 1.12 and the “orthotopic growth of H1650-Luc cells” value (H1650-Luc cells) was “effectively suppressed”. The IC50 (CL1-5 cells) was 1470 ± 530 nM, the half-life [4] was 2210 ± 131 min and the “suppression of xenograft tumor growth” value (PC9 xenograft) was 55%. For the same compound, the IC50 (MES-SA) was 770 ± 80 nM, the cell cycle interference (H460 cells [5]) was “S phase delay at 24 hours and then G2 arrest at 72 hours” and the “formation of DNA ICLs in plasmid DNA” value (pEGFP-N1 plasmid DNA) was “formed DNA ICLs”. The ALP ([6]; 14 Days) was 233.50 ± 36.74 U/l, the ALT ([6]; 14 Days) was 44.87 ± 19.72 U/l and the AST ([6]; 14 Days) was 86.14 ± 25.25 U/l. For the same compound, the BASO ([6]; 14 Days) was 0.09 ± 0.03 10^9/l, the BUN ([6]; 14 Days) was 23.95 ± 1.71 mg/dL and the CRE ([6]; 14 Days) was 0.17 ± 0.05 mg/dL. The EOS ([6]; 14 Days) was 0.12 ± 0.13 10^9/l, the HCT ([6]; 14 Days) was 44.02 ± 1.18% and the HGB ([6]; 14 Days) was 12.78 ± 0.42 g/dL. The LYM ([6]; 14 Days) was 2.86 ± 0.88 10^9/l, the MCH ([6]; 14 Days) was 16.38 ± 0.52 pg and the MCHC ([6]; 14 Days) was 29.05 ± 0.46 g/dL. For the same compound, the MCV ([6]; 14 Days) was 56.40 ± 1.69 fL, the MONO ([6]; 14 Days) was 0.11 ± 0.09 10^9/l and the NEU ([6]; 14 Days) was 0.82 ± 0.47 10^9/l. For the same compound, the PLT ([6]; 14 Days) was 958.00 ± 178.31 10^9/l, the RBC ([6]; 14 Days) was 7.81 ± 0.33 10^12/l and the WBC ([6]; 14 Days) was 4.00 ± 0.97 10^9/l. It also gave an ALP ([6]; 48 Hours) of 297.50 ± 72.11 U/l, an ALT ([6]; 48 Hours) of 156.25 ± 236.88 U/l and an AST ([6]; 48 Hours) of 220.27 ± 153.45 U/l. The BASO ([6]; 48 Hours) was 0.06 ± 0.03 10^9/l, the BUN ([6]; 48 Hours) was 19.48 ± 2.03 mg/dL and the CRE ([6]; 48 Hours) was 0.18 ± 0.15 mg/dL. For the same compound, the EOS ([6]; 48 Hours) was 0.05 ± 0.04 10^9/l, the HCT ([6]; 48 Hours) was 41.13 ± 1.95% and the HGB ([6]; 48 Hours) was 11.96 ± 0.53 g/dL. For the same compound, the LYM ([6]; 48 Hours) was 1.83 ± 1.17 10^9/l, the MCH ([6]; 48 Hours) was 16.75 ± 0.45 pg and the MCHC ([6]; 48 Hours) was 29.07 ± 0.40 g/dL. For the same compound, the MCV ([6]; 48 Hours) was 57.61 ± 1.27 fL, the MONO ([6]; 48 Hours) was 0.05 ± 0.04 10^9/l and the NEU ([6]; 48 Hours) was 0.45 ± 0.21 10^9/l. The PLT ([6]; 48 Hours) was 786.10 ± 90.60 10^9/l, the RBC ([6]; 48 Hours) was 7.14 ± 0.38 10^12/l and the WBC ([6]; 48 Hours) was 2.43 ± 1.19 10^9/l. For the same compound, the IC50 (A549 cells) was 3.15 ± 1.2 µM, the “concentration at which topo II activity was significantly inhibited” value (topo II) was “greater than 0.5 μM” and the “concentration at which topo I activity was significantly inhibited” value (topo I) was “greater than 0.5 μM”. The IC50 (H460 cells [7]) was 1060 ± 110 nM, the “toxic effects in the major organs” value [8] was “did not cause apparent toxic effects in the major organs except for slight and recoverable liver damage” and the IC50 (CL97 cells) was 1250 ± 180 nM. The IC50 (NTUB1) was 1140 ± 320 nM, the “suppression of xenograft tumor growth” value (H1975 xenograft) was 26% and the IC50 (CL141T cells) was 1320 ± 470 nM. The IC50 (CCRF/VBL) was 410 ± 30 nM, the IC50 (H1975 cells) was 2340 ± 180 nM and the half-life (stability in rat plasma) was 3.73 ± 0.234 days. For the same compound, the “suppression of xenograft tumor growth” value (H1650 xenograft) was 30%, the IC50 (KB/vin10; Homo sapiens, KB-VIN10) was 1560 ± 510 nM and the resistance factor (KB/vin10; KB/vin10 vs KB) was 0.79 x. For the same compound, the “tail moment in X-ray irradiated H460 cells (DNA ICLs)” value (H460 cells [9]) was “dose-dependently induced shortened tail moments”, the “concentration in Blood” value [10] was 1.59 ± 0.48 μg/ml or μg/g and the “concentration in Brain” value [10] was 3.97 ± 0.96 μg/ml or μg/g. For the same compound, the “concentration in Heart” value [10] was 1.79 ± 0.72 μg/ml or μg/g, the “concentration in Kidney” value [10] was 2.19 ± 0.12 μg/ml or μg/g and the “concentration in Liver” value [10] was 10.71 ± 1.96 μg/ml or μg/g. For the same compound, the “concentration in Lung” value [10] was 3.13 ± 1.44 μg/ml or μg/g and the “concentration in Spleen” value [10] was 0.48 ± 0.08 μg/ml or μg/g.
